Assay [1] concerns the target T1, GPR40 (Homo sapiens, UniProt O14842). The assay can be described thus: Cell-based aequorin assay (CHO cells stably expressing GPR40 and aequorin). Set-up: expressed in transfected cells; host or cells: CHO cells stably transfected with GPR40 and aequorin. Particulars: activation of human GPR40, CHO cells, 0.01% HSA. The gist of the method:
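CHO cells stably co-expressing GPR40 and aequorin, loaded with coelenterazine (1 ug/mL, 2 h, room temperature) in H/HBSS with 20 mM Hepes and 0.01% fatty acid-free HSA. Serially diluted compounds added; luminescence recorded over 20 s. EC50 from dose-response of maximum relative light units.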

Assay [2] concerns the target T1, GPR40. The experiment in a line: Inositol phosphate accumulation assay (A9_GPR40 cells). Type of assay: cell-based. Also on record: expressed in transfected cells; host or cells: CHO cells stably transfected with GPR40 and aequorin. Particulars: inositol phosphate assay, A9_GPR40 cells, 1 hour; read-out: IP3 EC50. An outline of the steps:
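[^3H] inositol phosphate accumulation was measured by SPA after 1 h compound exposure at 37° C in HBSS/10 mM LiCl containing HSA, ending with a 20 mM formic acid quench. The GPR40-transfected A9 cells had first been labelled overnight (16 h) with 1 μCi/mL ^3H-inositol.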

Molecules are shown by their SMILES.

By EC50 is commonly meant the concentration giving half of the maximal effect.

T1 sequence (O14842 whole entry): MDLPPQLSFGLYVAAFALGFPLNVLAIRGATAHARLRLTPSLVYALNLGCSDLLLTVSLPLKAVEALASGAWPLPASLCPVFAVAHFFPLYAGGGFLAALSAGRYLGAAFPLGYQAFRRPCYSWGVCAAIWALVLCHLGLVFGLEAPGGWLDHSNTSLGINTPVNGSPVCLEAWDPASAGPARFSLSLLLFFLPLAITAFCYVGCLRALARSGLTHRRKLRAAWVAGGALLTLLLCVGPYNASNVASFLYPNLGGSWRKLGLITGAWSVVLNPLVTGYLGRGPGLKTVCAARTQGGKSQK

Turning to `COc1ccc(F)c(-c2ccc(COc3cccc(C(CC(=O)O)CC4CC4)c3)cc2N2CCCCCC2)c1` (single isomer, unassigned) [Example 69.29, (3R)-3-(3-(((2-(1-Azepanyl)-2′-fluoro-5′-(methyloxy)-1,1′-biphenyl-4-yl)methyl)oxy)phenyl)-4-cyclopropylbutanoic acid or (3S)-3-(3-(((2-(1-azepanyl)-2′-fluoro-5′-(methyloxy)-1,1′-biphenyl-4-yl)methyl)oxy)phenyl)-4-cyclopropylbutanoic acid], the EC50 in assay [1] and in assay [2] was 100 to 1000 nM throughout.

As to `COc1ccc(F)c(-c2cc(F)c(COc3cccc(C(CC(=O)O)CC4CC4)c3)cc2C2=CCCC2(C)C)c1` (single isomer, unassigned) [Example 69.30, (3R)-4-cyclopropyl-3-(3-(((2-(5,5-dimethyl-1-cyclopenten-1-yl)-2′,5-difluoro-5′-(methyloxy)-1,1′-biphenyl-4-yl)methyl)oxy)phenyl)butanoic acid or (3S)-4-cyclopropyl-3-(3-(((2-(5,5-dimethyl-1-cyclopenten-1-yl)-2′,5-difluoro-5′-(methyloxy)-1,1′-biphenyl-4-yl)methyl)oxy)phenyl)butanoic acid], the results for the EC50 in assay [1] and in assay [2] were 100 to 1000 nM and below 10 nM, respectively.

On to `COc1ccc(F)c(-c2ccc(COc3cccc([C@@H](CC(=O)O)CC4CC4)c3)cc2C2=CC(C)(C)CC(C)(C)C2)c1` (single isomer, unassigned) [Example 69.31, (3R)-4-Cyclopropyl-3-(3-(((2′-fluoro-5′-(methyloxy)-2-(3,3,5,5-tetramethyl-1-cyclohexen-1-yl)-1,1′-biphenyl-4-yl)methyl)oxy)phenyl)butanoic acid or (3S)-4-cyclopropyl-3-(3-(((2′-fluoro-5′-(methyloxy)-2-(3,3,5,5-tetramethyl-1-cyclohexen-1-yl)-1,1′-biphenyl-4-yl)methyl)oxy)phenyl)butanoic acid], for which the figures for the EC50 in assay [1] and in assay [2] were 100 to 1000 nM and 10 to 100 nM, respectively.

Regarding `COc1ccc(F)c(-c2ccc(COc3cccc([C@@H](CC(=O)O)CC4CC4)c3)cc2C2CC(C)(C)CC(C)(C)C2)c1` (single isomer, unassigned) [Example 69.32, (3R)-4-Cyclopropyl-3-(3-(((2′-fluoro-5′-(methyloxy)-2-(3,3,5,5-tetramethylcyclohexyl)-1,1′-biphenyl-4-yl)methyl)oxy)phenyl)butanoic acid or (3S)-4-cyclopropyl-3-(3-(((2′-fluoro-5′-(methyloxy)-2-(3,3,5,5-tetramethylcyclohexyl)-1,1′-biphenyl-4-yl)methyl)oxy)phenyl)butanoic acid], the values for the EC50 in assay [1] and in assay [2] were 100 to 1000 nM and 10 to 100 nM, respectively.

In the case of `COc1ccc(F)c(-c2ccc(COc3cccc([C@@H](CC(=O)O)CC4CC4)c3)cc2C2CCCC2C)c1` (single isomer, unassigned) [Example 69.33, (3R)-4-Cyclopropyl-3-(3-(((2′-fluoro-2-(2-methylcyclopentyl)-5′-(methyloxy)-1,1′-biphenyl-4-yl)methyl)oxy)phenyl)butanoic acid or (3S)-4-cyclopropyl-3-(3-(((2′-fluoro-2-(2-methylcyclopentyl)-5′-(methyloxy)-1,1′-biphenyl-4-yl)methyl)oxy)phenyl)butanoic acid], the EC50 in assay [1] lay in the range of 100 to 1000 nM; in assay [2], 10 to 100 nM.

As for `COc1ccc(F)c(-c2cc(F)c(COc3cccc(C(CC(=O)O)CC4CC4)c3)cc2C2CCCC2(C)C)c1` (single isomer, unassigned) [Example 69.34], the EC50 in assay [1] was 100 to 1000 nM; in assay [2], below 10 nM.

Regarding `COc1ccc(F)c(-c2ccc(COc3cccc(C(CC(=O)O)CC4CC4)c3)cc2C(OC)C(C)(C)C)c1` (single isomer, unassigned) [Example 69.35], the EC50 in assay [1] was 10 to 100 nM; in assay [2] it was below 10 nM.

For the compound `COc1ccc(F)c(-c2ccc(COc3cccc(C(CC(=O)O)CC4CC4)c3)cc2C2CCCCC2(C)C)c1` (single isomer, unassigned) [Example 69.36], the results for the EC50 in assay [1] and in assay [2] were 100 to 1000 nM and below 10 nM, respectively.

For `C=CC(C)(C)C(OC)c1cc(COc2cccc(C(CC(=O)O)CC3CC3)c2)ccc1-c1cc(OC)ccc1F` (single isomer, unassigned) [Example 69.38], the EC50 is 100 to 1000 nM in assay [1] and below 10 nM in assay [2].

Consider `CCC(C)(C)C(OC)c1cc(COc2cccc(C(CC(=O)O)CC3CC3)c2)ccc1-c1cc(OC)ccc1F` (single isomer, unassigned) [Example 69.42], for which the EC50 in assay [1] is 100 to 1000 nM; in assay [2], below 10 nM.

Take `COc1ccc(F)c(-c2ccc(COc3cccc([C@@H](CC(=O)O)CC4CC4)c3)cc2[C@H]2OCCC2(C)C)c1` (single isomer, unassigned) [Example 69.44]: the EC50 in assay [1] is 100 to 1000 nM; in assay [2], 10 to 100 nM.

In the case of `COc1cccc(-c2ccc(COc3cccc(C(CC(=O)O)C4CCC4)c3)cc2C(C)(C)C)c1` (single isomer, unassigned) [Example 70.1, (3S)-3-Cyclobutyl-3-(3-(((2-(1,1-dimethylethyl)-3′-(methyloxy)-1,1′-biphenyl-4-yl)methyl)oxy)phenyl)propanoic acid or (3R)-3-cyclobutyl-3-(3-(((2-(1,1-dimethylethyl)-3′-(methyloxy)-1,1′-biphenyl-4-yl)methyl)oxy)phenyl)propanoic acid], the concentration for a half-maximal effect (EC50) in assay [1] was 100 to 1000 nM; in assay [2], 10 to 100 nM.

On to `COc1ccc(F)c(-c2ccc(COc3cccc(C(CC(=O)O)C4CCC4)c3)cc2C2=CCCC2(C)C)c1` (single isomer, unassigned) [Example 70.2, (3S)-3-Cyclobutyl-3-(3-(((2-(5,5-dimethyl-1-cyclopenten-1-yl)-2′-fluoro-5′-(methyloxy)-1,1′-biphenyl-4-yl)methyl)oxy)phenyl)propanoic acid or (3R)-3-cyclobutyl-3-(3-(((2-(5,5-dimethyl-1-cyclopenten-1-yl)-2′-fluoro-5′-(methyloxy)-1,1′-biphenyl-4-yl)methyl)oxy)phenyl)propanoic acid], for which the EC50 lay within 100 to 1000 nM in assay [1] and 10 to 100 nM in assay [2].

`COc1ccc(F)c(-c2ccc(COc3cccc(C(CC(=O)O)C4CCC4)c3)cc2C(C)(C)C)c1` (single isomer, unassigned) [Example 70.3, (3S)-3-Cyclobutyl-3-(3-(((2-(1,1-dimethylethyl)-2′-fluoro-5′-(methyloxy)-1,1′-biphenyl-4-yl)methyl)oxy)phenyl)propanoic acid or (3R)-3-cyclobutyl-3-(3-(((2-(1,1-dimethylethyl)-2′-fluoro-5′-(methyloxy)-1,1′-biphenyl-4-yl)methyl)oxy)phenyl)propanoic acid]: the EC50 lay in the range of 100 to 1000 nM in assay [1] and 10 to 100 nM in assay [2].

On to `CCCCOc1cc(COc2cccc(C(CC(=O)O)C3CCC3)c2)ccc1-c1cc(OC)ccc1F` (single isomer, unassigned) [Example 70.4, (3S)-3-(3-(((2-(Butyloxy)-2′-fluoro-5′-(methyloxy)-1,1′-biphenyl-4-yl)methyl)oxy)phenyl)-3-cyclobutylpropanoic acid or (3R)-3-(3-(((2-(butyloxy)-2′-fluoro-5′-(methyloxy)-1,1′-biphenyl-4-yl)methyl)oxy)phenyl)-3-cyclobutylpropanoic acid], for which the EC50 in assay [1] and in assay [2] was 100 to 1000 nM throughout.

Take `CCCCOc1cc(COc2cccc(C(CCCC)CC(=O)O)c2)ccc1-c1cc(OC)ccc1F` (single isomer, unassigned) [Example 71.2, (3R)-3-(3-(((2-(Butyloxy)-2′-fluoro-5′-(methyloxy)-1,1′-biphenyl-4-yl)methyl)oxy)phenyl)heptanoic acid or (3S)-3-(3-(((2-(butyloxy)-2′-fluoro-5′-(methyloxy)-1,1′-biphenyl-4-yl)methyl)oxy)phenyl)heptanoic acid]: the EC50 in assay [1] and in assay [2] was 100 to 1000 nM in each case.

As for `CCCCC(CC(=O)O)c1cccc(OCc2ccc(-c3cc(OC)ccc3F)c(C3=CCCC3(C)C)c2)c1` (single isomer, unassigned) [Example 71.3, (3R)-3-(3-(((2-(5,5-Dimethyl-1-cyclopenten-1-yl)-2′-fluoro-5′-(methyloxy)-1,1′-biphenyl-4-yl)methyl)oxy)phenyl)heptanoic acid or (3S)-3-(3-(((2-(5,5-dimethyl-1-cyclopenten-1-yl)-2′-fluoro-5′-(methyloxy)-1,1′-biphenyl-4-yl)methyl)oxy)phenyl)heptanoic acid], the EC50 lay within 100 to 1000 nM in assay [1] and 10 to 100 nM in assay [2].

On to `CCC(CC(=O)O)c1cc(OCc2ccc(-c3cc(OC)ccc3F)c(C3=CCCC3(C)C)c2)ccc1F` (single isomer, unassigned) [Example 76.1, (3R)-3-(5-(((2-(5,5-Dimethyl-1-cyclopenten-1-yl)-2′-fluoro-5′-(methyloxy)-1,1′-biphenyl-4-yl)methyl)oxy)-2-fluorophenyl)pentanoic acid or (3S)-3-(5-(((2-(5,5-dimethyl-1-cyclopenten-1-yl)-2′-fluoro-5′-(methyloxy)-1,1′-biphenyl-4-yl)methyl)oxy)-2-fluorophenyl)pentanoic acid], for which the results for the EC50 in assay [1] and in assay [2] were 100 to 1000 nM and 10 to 100 nM, respectively.

Regarding `CCC(CC(=O)O)c1cc(OCc2ccc(-c3cc(OC)ccc3F)c(C3CCCC3(C)C)c2)ccc1F` (single isomer, unassigned) [Example 76.3], the values for the EC50 in assay [1] and in assay [2] were 100 to 1000 nM and 10 to 100 nM, respectively.

For the origin of these results see US8030354B2, “Substituted biphenyl GPR40 modulators” (Amgen Inc., priority 2007, dated 2011).
